Source: PMC8286840, “Identifying SARS-CoV-2 antiviral compounds by screening for small molecule inhibitors of Nsp3 papain-like protease” (Biochemical Journal, 2021)
Where a name gives a salt, the structure may show the parent alone. Read-outs that look alike come from different tables or passages of the source.

Key:
[1] = biological target: T1, SARS-CoV-2 PLpro (nsp3 1564–1878) (Severe acute respiratory syndrome coronavirus 2, UniProt P0DTD1); test: biochemical; set-up: FRET-quenched peptide (Pro3) cleavage by PLpro, 10 min pre-incubation, slope over 20 min, normalised to no-compound control; conditions: high concentration screen, read-out: % of control remaining
[2] = biological target: T1, SARS-CoV-2 PLpro (nsp3 1564–1878); test: biochemical; set-up: FRET-quenched peptide (Pro3) cleavage by PLpro, 10 min pre-incubation, slope over 20 min, normalised to no-compound control; conditions: low concentration screen, read-out: % of control remaining

Question: COc1ccc(S(=O)(=O)Nc2c(C)cc(C)cc2C)cc1 [GSK137647A] was tested. Which remaining activity at 3.75 µM ([1]; Well no.=7757) did it give?
Answer: 103%

Question: What about the remaining activity at 1.25 µM ([2]; Well no.=7757) of the same molecule?
Answer: 103%

Question: How did the remaining activity at 3.75 µM ([1]; Well no.=1935) turn out when C[C@@H](O)[C@H]1C(=O)N2C(C(=O)O)=C(SCCNC=N)C[C@H]12 [Imipenem] was run?
Answer: 103%

Question: And the remaining activity at 3.75 µM ([1]; Well no.=5494)?
Answer: 104%

Question: What about the remaining activity at 1.25 µM ([2]; Well no.=1935) of the same molecule?
Answer: 102%

Question: What about the remaining activity at 1.25 µM ([2]; Well no.=5494) of the same molecule?
Answer: 104%

Question: COC(=O)N1CCN(C(=O)Cc2ccc(Cl)c(Cl)c2)C(CN2CCCC2)C1 (centres unmarked) [GR-89696 fumarate] was tested. Which remaining activity at 3.75 µM ([1]; Well no.=462) did it give?
Answer: 99.8%

Question: What about the remaining activity at 1.25 µM ([2]; Well no.=462) of the same molecule?
Answer: 101%

Question: CO[C@]1(CC[C@@H](C)CO[C@@H]2O[C@H](CO)[C@@H](O)[C@H](O)[C@H]2O)O[C@H]2C[C@H]3[C@@H]4CC=C5C[C@@H](O[C@@H]6O[C@H](CO)[C@@H](O[C@@H]7O[C@@H](C)[C@H](O)[C@@H](O)[C@H]7O)[C@H](O)[C@H]6O[C@@H]6O[C@@H](C)[C@H](O)[C@@H](O)[C@H]6O)CC[C@]5(C)[C@H]4CC[C@]3(C)[C@H]2[C@@H]1C [Methyl protodioscin] was tested. Which remaining activity at 3.75 µM ([1]; Well no.=6208) did it give?
Answer: 93.7%

Question: And the remaining activity at 1.25 µM ([2]; Well no.=6208)?
Answer: 101%

Question: How did the remaining activity at 3.75 µM ([1]; Well no.=5346) turn out when COc1ccccc1N1CCN(CCN2C(=O)CC3(CCCC3)CC2=O)CC1 [BMY 7378] was run?
Answer: 88.7%

Question: What about the remaining activity at 1.25 µM ([2]; Well no.=5346) of the same molecule?
Answer: 91.4%

Question: How did the remaining activity at 3.75 µM ([1]; Well no.=1759) turn out when COCCOC(=O)C1=C(C)NC(C)=C(C(=O)OC/C=C/c2ccccc2)C1c1cccc([N+](=O)[O-])c1 (centres unmarked) [Cilnidipine] was run?
Answer: 98.3%

Question: And the remaining activity at 1.25 µM ([2]; Well no.=1759)?
Answer: 98.8%

Question: Which remaining activity at 3.75 µM ([1]; Well no.=1481) does the source give for NC(=S)c1ccc[n+]([C@@H]2O[C@H](COP(=O)([O-])OP(=O)(O)OC[C@H]3O[C@@H](n4cnc5c(N)ncnc54)[C@H](OP(=O)(O)O)[C@@H]3O)[C@@H](O)[C@H]2O)c1 [Thio-NADP sodium] here?
Answer: 93.5%

Question: And the remaining activity at 1.25 µM ([2]; Well no.=1481)?
Answer: 98%

Question: Which results are given for CO[C@@]1(NC(=O)CSCC#N)C(=O)N2C(C(=O)O)=C(CSc3nnnn3C)CS[C@@H]21 [Cefmetazole sodium]?
Answer: remaining activity at 3.75 µM ([1]; Well no.=134): 99.6%; remaining activity at 1.25 µM ([2]; Well no.=134): 101%

Question: Which remaining activity at 3.75 µM ([1]; Well no.=5434) does the source give for C[C@H](C#Cc1ccc(Cc2ccc(F)cc2)s1)N(O)C(N)=O [N-{(1R)-3-[5-(4-fluorobenzyl)-2-thienyl]-1-methyl-2-propynyl}-N-hydroxyurea] here?
Answer: 103%

Question: And the remaining activity at 1.25 µM ([2]; Well no.=5434)?
Answer: 99.4%

Question: Which results are given for Cc1cncc(CN2CCC(=C3c4ccc(Cl)cc4CCc4cccnc43)CC2)c1 [Rupatadine Fumarate]?
Answer: remaining activity at 3.75 µM ([1]; Well no.=4925): 101%; remaining activity at 1.25 µM ([2]; Well no.=4925): 103%

Question: For N[C@]1(C(=O)O)CC[C@H](C(=O)O)C1, which remaining activity at 3.75 µM ([1]; Well no.=64) is on record?
Answer: 101%

Question: What about the remaining activity at 1.25 µM ([2]; Well no.=64) of the same molecule?
Answer: 102%

Question: What does the source list for CN1CCN(C2=Nc3ccccc3Oc3ccc(Cl)cc32)CC1 [Loxapine (succinate)]?
Answer: remaining activity at 3.75 µM ([1]; Well no.=6172): 87.5%; remaining activity at 1.25 µM ([2]; Well no.=6172): 93.4%

Question: Which remaining activity at 3.75 µM ([1]; Well no.=7747) does the source give for C[C@H](N)C(=O)O [_-Alanine] here?
Answer: 107%

Question: And the remaining activity at 1.25 µM ([2]; Well no.=7747)?
Answer: 103%

Question: Which remaining activity at 3.75 µM ([1]; Well no.=8272) does the source give for CCCNC(=O)[C@H]1O[C@@H]1C(=O)N[C@H](C(=O)N1CCC[C@H]1C(=O)O)[C@@H](C)CC [CA-074] here?
Answer: 101%

Question: And the remaining activity at 1.25 µM ([2]; Well no.=8272)?
Answer: 104%

Question: Which results are given for COC1=CC(=O)O[C@@H](/C=C/c2ccc3c(c2)OCO3)C1 [Methysticin]?
Answer: remaining activity at 3.75 µM ([1]; Well no.=3565): 108%; remaining activity at 1.25 µM ([2]; Well no.=3565): 105%

Question: OC1CCCCC1N1CCC(c2ccccc2)CC1 (racemic) was tested. Which remaining activity at 3.75 µM ([1]; Well no.=1290) did it give?
Answer: 97.9%

Question: And the remaining activity at 1.25 µM ([2]; Well no.=1290)?
Answer: 101%

Question: N#CC(C#N)=C(N)/C(C#N)=C/c1cc(O)c(O)c(O)c1 [Tyrphostin 51] was tested. Which remaining activity at 3.75 µM ([1]; Well no.=1324) did it give?
Answer: 95.8%

Question: What about the remaining activity at 1.25 µM ([2]; Well no.=1324) of the same molecule?
Answer: 96.8%

Question: How did the remaining activity at 3.75 µM ([1]; Well no.=8044) turn out when CC(C)[C@H](N)C(=O)OCC(CO)OCn1cnc2c(=O)nc(N)[nH]c21 (some centres unmarked) [Valganciclovir (hydrochloride)] was run?
Answer: 93.4%

Question: And the remaining activity at 1.25 µM ([2]; Well no.=8044)?
Answer: 94.6%

Question: How did the remaining activity at 3.75 µM ([1]; Well no.=7855) turn out when Nc1nccc(/C=C/c2ccccc2)n1 [TCN238] was run?
Answer: 94.5%

Question: And the remaining activity at 1.25 µM ([2]; Well no.=7855)?
Answer: 99.5%

Question: Which results are given for O=c1cc(N2CCOCC2)oc2c(-c3ccccc3)cccc12 [LY 294002 hydrochloride - 2-(4-Morpholinyl)-8-phenyl-4H-1-benzopyran-4-one hydrochloride]?
Answer: remaining activity at 3.75 µM ([1]; Well no.=2344): 98.8%; remaining activity at 1.25 µM ([2]; Well no.=2344): 97.3%

Question: Which results are given for CCCCCCCCCCCCCCCCCCCCC(=O)O [Heneicosanoic acid]?
Answer: remaining activity at 3.75 µM ([1]; Well no.=4450): 101%; remaining activity at 1.25 µM ([2]; Well no.=4450): 101%

Question: How did the remaining activity at 3.75 µM ([1]; Well no.=4936) turn out when Cc1ccccc1C(=O)Nc1ccc(C(=O)N2CCCC(N(C)C)c3ccccc32)cc1 (centres unmarked) [Mozavaptan] was run?
Answer: 101%

Question: And the remaining activity at 3.75 µM ([1]; Well no.=6515)?
Answer: 96.3%

Question: What about the remaining activity at 1.25 µM ([2]; Well no.=4936) of the same molecule?
Answer: 101%

Question: And the remaining activity at 1.25 µM ([2]; Well no.=6515)?
Answer: 93.2%

Question: What does the source list for O=C(O)Cc1ccccc1Nc1c(Cl)cccc1Cl [Diclofenac]?
Answer: remaining activity at 3.75 µM ([1]; Well no.=1978): 102%; remaining activity at 1.25 µM ([2]; Well no.=1978): 102%

Question: Which results are given for COc1ccc(-n2c(SCC#N)nc3sc4c(c3c2=O)CCCC4)cc1 [Necrostatin-5]?
Answer: remaining activity at 3.75 µM ([1]; Well no.=6060): 95.8%; remaining activity at 1.25 µM ([2]; Well no.=6060): 98.5%

Question: Which results are given for Nc1c(/N=N/c2ccc(-c3ccc(/N=N/c4cc(S(=O)(=O)O)c5ccccc5c4N)cc3)cc2)cc(S(=O)(=O)O)c2ccccc12 [Congo Red]?
Answer: remaining activity at 3.75 µM ([1]; Well no.=8614): 104%; remaining activity at 1.25 µM ([2]; Well no.=8614): 101%

Question: Which remaining activity at 3.75 µM ([1]; Well no.=6681) does the source give for C[Se]CC[C@H](N)C(=O)O [L-SelenoMethionine] here?
Answer: 103%

Question: What about the remaining activity at 1.25 µM ([2]; Well no.=6681) of the same molecule?
Answer: 106%

Question: How did the remaining activity at 3.75 µM ([1]; Well no.=6444) turn out when COc1ccc(C(=O)CC2(O)C(=O)Nc3c(Cl)ccc(Cl)c32)cc1 (centres unmarked) [YK-4-279] was run?
Answer: 98.7%

Question: What about the remaining activity at 1.25 µM ([2]; Well no.=6444) of the same molecule?
Answer: 97.8%

Question: For CC(C)C[C@H](NC(=O)[C@@H](O)[C@H](N)Cc1ccc([N+](=O)[O-])cc1)C(=O)O [(2S,3R)-3-Amino-2-hydroxy-4-(4-nitrophenyl)butanoyl-L-leucine hydrochloride], which remaining activity at 3.75 µM ([1]; Well no.=67) is on record?
Answer: 104%

Question: What about the remaining activity at 1.25 µM ([2]; Well no.=67) of the same molecule?
Answer: 106%

Question: What does the source list for CC1=C(/C=C/C(C)=C\C=C\C(C)=C\C(=O)O)C(C)(C)CCC1 [9-cis Retinoic acid]?
Answer: remaining activity at 3.75 µM ([1]; Well no.=3136): 95.8%; remaining activity at 3.75 µM ([1]; Well no.=4428): 102%; remaining activity at 1.25 µM ([2]; Well no.=3136): 98.3%; remaining activity at 1.25 µM ([2]; Well no.=4428): 103%

Question: Which results are given for O=C(COCC(=O)Nc1ccc(Cl)cc1C(=O)O)Nc1cccc(-c2ccoc2)c1 [TM5441]?
Answer: remaining activity at 3.75 µM ([1]; Well no.=6540): 105%; remaining activity at 1.25 µM ([2]; Well no.=6540): 109%

Question: For O=C(Nc1ccccc1)N1CCN(c2nc(-c3ccccc3)ns2)CC1 [JNJ 1661010], which remaining activity at 3.75 µM ([1]; Well no.=5167) is on record?
Answer: 104%

Question: What about the remaining activity at 1.25 µM ([2]; Well no.=5167) of the same molecule?
Answer: 98.1%

Question: With Oc1cc(O)cc(/C=C/c2ccc(O)c(O)c2)c1 [Piceatannol] as the molecule, how does the remaining activity at 3.75 µM ([1]; Well no.=948) read?
Answer: 92.7%

Question: And the remaining activity at 3.75 µM ([1]; Well no.=3084)?
Answer: 98.8%

Question: And the remaining activity at 3.75 µM ([1]; Well no.=3939)?
Answer: 102%

Question: And the remaining activity at 1.25 µM ([2]; Well no.=948)?
Answer: 98.3%

Question: What about the remaining activity at 1.25 µM ([2]; Well no.=3084) of the same molecule?
Answer: 107%

Question: And the remaining activity at 1.25 µM ([2]; Well no.=3939)?
Answer: 105%
